Earlier results on 2 molecules are cited in patent publication US7079956B2, “Crystal structure of antibiotics bound to the 30S ribosome and its use” (Medical Research Council, priority 2000, dated 2006).

The conditions of this data set: literature values: Ross et al. 1998 (tetracycline), Cohen et al. 1969 (pactamycin), Cabanas et al. 1978 (hygromycin B).

Take `CC(=O)c1cccc(NC2C(N)C(NC(=O)N(C)C)(C(C)O)C(C)(O)C2(O)COC(=O)c2c(C)cccc2O)c1` (centres unmarked) [pactamycin, 2-hydroxy-6-methylbenzoic acid [5-[(3-acetylphenyl)amino]-4-amino-3-[[(dimethylamino)-carbonyl]amino]-1,2-dihydroxy-3-(1-hydroxy-ethyl)-2-methylcyclopentyl]methyl ester]: the minimum inhibitory concentration was 8 to 80 µM. Regarding `CN[C@H]1C[C@@H](N)[C@H](O)[C@@H](O[C@@H]2O[C@H](CO)[C@H](O)[C@@H]3OC4(O[C@H]23)O[C@H]([C@@H](N)CO)[C@H](O)[C@H](O)[C@H]4O)[C@@H]1O` (stereo partly drawn) [hygromycin B, O-6-amino-6-deoxy-L-glycero-D-galacto-heptopyranosylidene-(12-3)-O-D-talopyranosyl-(15)-2-deoxy-N3-methyl-D-streptamine], the minimum inhibitory concentration result is “around 6 μM”.
